US20110045101A1, “FUNGICIDAL SUBSTITUTED AZOLES” (E.I. Du Pont De Nemours and Company, priority 2009, published 2011)
Marks after values point to notes of the source that are not given here.

Tests used:
Type in all cases: in vivo
Details in all cases: 100 = 100% disease control
[1] = tested on: Puccinia recondita f. sp. tritici; test: Test I: wheat leaf rust on wheat seedlings, sprayed the day before inoculation, visual disease rating
Summary of the method: (§1)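 Compounds were dissolved in acetone (3% of final volume), then suspended in 50/50 acetone/purified water with 250 ppm Trem® 014 surfactant. Suspensions at 200 ppm (some at 40 ppm) were sprayed to run-off, 200 ppm being equivalent to 500 g/ha.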

Septoria tritici = test: Test G: wheat leaf blotch on wheat seedlings, sprayed the day before inoculation, visual disease rating
Summary of the method: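 Seedlings receive a protective spray of test suspension in acetone/water carrying 250 ppm surfactant, mostly at 200 ppm and at 40 ppm where marked. They are inoculated the next day, kept saturated at 24° C for 48 h, then held at 20° C for 19 days before visual scoring.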

Alternaria solani = test: Test D: tomato early blight, sprayed the day before inoculation, visual disease rating
Summary of the method: as §1

[2] = tested on: Puccinia recondita f. sp. tritici; test: Test H: wheat leaf rust, test suspension sprayed after inoculation of wheat seedlings, visual disease rating
Summary of the method: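 Wheat seedlings inoculated with P. recondita spores, held 24 h saturated at 20 °C, then 2 days in growth chamber at 20 °C; compound suspension (acetone/water with Trem 014) sprayed to run-off afterwards. Rated visually; 200 ppm (≈500 g/ha) unless marked *, which denotes 40 ppm.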

[3] = tested on: Erysiphe graminis f. sp. tritici; test: Test J: wheat powdery mildew on wheat seedlings, sprayed the day before inoculation, visual disease rating
Summary of the method: as §1

Botrytis cinerea = test: Test C: tomato Botrytis on tomato seedlings, sprayed the day before inoculation, visual disease rating
Summary of the method: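 Compounds were dissolved in acetone (3% of final volume), then suspended in 50/50 acetone/purified water containing 250 ppm polyhydric alcohol ester surfactant. Suspensions were sprayed to run-off on tomato seedlings at 200 ppm, equivalent to 500 g/ha, or at 40 ppm where marked.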

Septoria nodorum = test: Test F: wheat glume blotch on wheat seedlings, sprayed the day before inoculation, visual disease rating
Summary of the method: as §1

[4] = 200 ppm, 0 = no control relative to controls
[5] = 40 ppm (marked *), 0 = no control

Fc1cc(F)c(-c2c(Cl)nc(Br)n2-c2cccc(OC(F)F)c2)c(F)c1 [compound 603]
Test I disease control rating [1, 4]: 100% | Test G disease control rating (Septoria tritici; [4]): 99% | Test D disease control rating (Alternaria solani; [4]): 100% | Test H disease control rating [2, 4]: 98% | Test J disease control rating [3, 4]: 100% | Test C disease control rating (Botrytis cinerea; [4]): 99% | Test F disease control rating (Septoria nodorum; [4]): 99%

COc1cc(F)c(-n2nnc(Br)c2-c2ccc(Cl)cc2)c(F)c1 [compound 474]
Test I disease control rating [1, 4]: 36% | Test G disease control rating (Septoria tritici; [4]): 90% | Test D disease control rating (Alternaria solani; [4]): 57% | Test H disease control rating [2, 4]: 0% | Test J disease control rating [3, 4]: 95% | Test C disease control rating (Botrytis cinerea; [4]): 99% | Test F disease control rating (Septoria nodorum; [4]): 0%

COc1cc(F)c(-c2c(N(C)C)ncn2Cc2ccc(Cl)cc2)c(F)c1 [compound 269]
Test I disease control rating ([1]; 200 ppm, 0 = no control): 9% | Test G disease control rating (Septoria tritici; 200 ppm, 0 = no control): 83% | Test D disease control rating (Alternaria solani; 200 ppm, 0 = no control): 0% | Test H disease control rating ([2]; 200 ppm, 0 = no control): 9% | Test J disease control rating ([3]; 200 ppm, 0 = no control): 0% | Test C disease control rating (Botrytis cinerea; 200 ppm, 0 = no control): 100% | Test F disease control rating (Septoria nodorum; 200 ppm, 0 = no control): 87%

COc1ccc(F)c(-c2c(Cl)nc(Br)n2-c2ccc(Cl)c(C)c2)c1F [compound 401]
Test I disease control rating [1, 4]: 73% | Test G disease control rating (Septoria tritici; [4]): 96% | Test D disease control rating (Alternaria solani; [4]): 100% | Test H disease control rating [2, 4]: 0% | Test J disease control rating [3, 4]: 100% | Test C disease control rating (Botrytis cinerea; [4]): 99% | Test F disease control rating (Septoria nodorum; [4]): 0%

COc1cc(F)c(-c2c(Cl)nc(Br)n2-c2cccc(OC(F)(F)F)c2)c(F)c1 [compound 547]
Test I disease control rating [1, 4]: 99% | Test G disease control rating (Septoria tritici; [4]): 97% | Test D disease control rating (Alternaria solani; [4]): 88% | Test H disease control rating [2, 4]: 0% | Test J disease control rating [3, 4]: 100% | Test C disease control rating (Botrytis cinerea; [4]): 99% | Test F disease control rating (Septoria nodorum; [4]): 60%

COc1cc(F)c(-c2c(Cl)nc(Cl)n2-c2ccc(OC)nc2Cl)c(F)c1 [compound 515]
Test I disease control rating [1, 4]: 100% | Test G disease control rating (Septoria tritici; [4]): 100% | Test D disease control rating (Alternaria solani; [4]): 99% | Test H disease control rating [2, 4]: 100% | Test J disease control rating [3, 4]: 100% | Test C disease control rating (Botrytis cinerea; [4]): 97% | Test F disease control rating (Septoria nodorum; [4]): 0%

COc1cc(C#N)cc(F)c1-c1c(Cl)nc(Cl)n1-c1ccc(Cl)c(F)c1 [compound 575]
Test I disease control rating [1, 4]: 76% | Test G disease control rating (Septoria tritici; [4]): 73% | Test D disease control rating (Alternaria solani; [4]): 0% | Test H disease control rating [2, 4]: 0% | Test J disease control rating [3, 4]: 72% | Test C disease control rating (Botrytis cinerea; [4]): 96% | Test F disease control rating (Septoria nodorum; [4]): 0%

COc1cc(F)c(-n2c(Br)nc(Cl)c2-c2ccc(Cl)cc2)c(F)c1 [compound 373]
Test I disease control rating [1, 5]: 95* % | Test G disease control rating (Septoria tritici; [5]): 92* % | Test D disease control rating (Alternaria solani; [5]): 98* % | Test H disease control rating [2, 5]: 0* % | Test J disease control rating [3, 5]: 99* % | Test C disease control rating (Botrytis cinerea; [5]): 99* % | Test F disease control rating (Septoria nodorum; [5]): 60* %

COc1ccc(F)c(-c2c(Cl)nc(C)n2-c2ccc(F)cc2)c1F [compound 334]
Test I disease control rating [1, 5]: 100* % | Test G disease control rating (Septoria tritici; [5]): 93* % | Test D disease control rating (Alternaria solani; [5]): 100* % | Test H disease control rating [2, 5]: 0* % | Test J disease control rating [3, 5]: 100* % | Test C disease control rating (Botrytis cinerea; [5]): 100* % | Test F disease control rating (Septoria nodorum; [5]): 90* %
